The target of one assay is T1, FLT3 R834Q (Homo sapiens, UniProt P36888, R834Q).
T1 construct: purchased DiscoverX (KINOMEscan); host or cells: E. coli (T7 phage) or HEK-293
T1 sequence (P36888 27-993 R834Q): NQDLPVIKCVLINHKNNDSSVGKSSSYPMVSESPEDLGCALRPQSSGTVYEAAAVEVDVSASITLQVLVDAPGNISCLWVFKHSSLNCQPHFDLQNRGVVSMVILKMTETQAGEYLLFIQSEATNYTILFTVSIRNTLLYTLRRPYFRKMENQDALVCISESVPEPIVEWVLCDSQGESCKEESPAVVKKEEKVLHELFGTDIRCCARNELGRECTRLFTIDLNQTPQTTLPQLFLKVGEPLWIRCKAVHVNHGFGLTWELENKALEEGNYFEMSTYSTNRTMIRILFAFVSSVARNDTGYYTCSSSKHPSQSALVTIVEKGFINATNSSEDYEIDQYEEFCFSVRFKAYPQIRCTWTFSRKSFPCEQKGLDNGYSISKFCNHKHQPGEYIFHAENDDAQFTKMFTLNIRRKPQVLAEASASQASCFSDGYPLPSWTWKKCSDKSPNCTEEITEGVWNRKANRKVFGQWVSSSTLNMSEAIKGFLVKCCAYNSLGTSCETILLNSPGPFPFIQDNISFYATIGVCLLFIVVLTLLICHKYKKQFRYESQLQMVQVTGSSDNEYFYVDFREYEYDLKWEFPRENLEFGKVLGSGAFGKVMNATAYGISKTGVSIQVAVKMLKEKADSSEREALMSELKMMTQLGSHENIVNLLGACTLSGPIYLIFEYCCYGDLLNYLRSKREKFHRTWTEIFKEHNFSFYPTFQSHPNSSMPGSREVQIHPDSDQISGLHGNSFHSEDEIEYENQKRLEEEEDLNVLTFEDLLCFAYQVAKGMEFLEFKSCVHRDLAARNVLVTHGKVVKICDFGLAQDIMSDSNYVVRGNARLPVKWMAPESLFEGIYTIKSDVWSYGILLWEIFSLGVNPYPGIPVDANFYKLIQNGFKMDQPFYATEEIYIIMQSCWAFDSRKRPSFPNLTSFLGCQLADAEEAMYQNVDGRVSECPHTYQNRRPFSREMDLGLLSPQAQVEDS
The experiment in a line: DiscoverX KINOMEscan competition binding, FLT3 R834Q. Particulars: no ATP. An excerpt:
(§1) Kinase binding data were obtained for various exemplary compounds prepared according to Examples 2-15 using the DiscoverX KINOMEscan® active site-directed competition binding site-directed assay protocol described below. […] As a result, the data report thermodynamic interaction affinities (Kd values), rather than IC50 values that are dependent on ATP concentrations. The assay uses a DNA-tagged version of the protein kinase, and an immobilized ligand bound to a solid support. Compounds that directly or indirectly prevent kinase binding to the immobilized ligand reduce the amount of kinase captured on the solid support, which is detected using an ultra-sensitive qPCR method. Affinity constants reported from the assay have been reported to be independent of the immobilized ligand used that is coupled to the solid support (See supplemental information in Fabian, M. A. et. al., (2005) Nat. […] Wodicka, L. […] Biol. 17, 1241-1249.) Kinase-tagged T7 phage strains were prepared in an E. coli host derived from the BL21 strain. E. coli were grown to log-phase and infected with T7 phage and incubated with shaking at 32° C. until lysis. […] Kds were determined using an 11-point 3-fold compound dilution series with three DMSO control points. […] The kinase concentration in the eluates was measured by qPCR. Binding constants (Kds) were calculated with a standard dose-response curve using the Hill equation. […]

The target in another assay is T2, FLT3 ITD, F691L (Homo sapiens, UniProt P36888, F691L, form not given).
T2 construct: fused on or other part: DNA tag for qPCR read-out (T7 phage fusion, or DNA-tagged kinase made in HEK-293 cells)
T2 sequence (P36888 1-993 F691L): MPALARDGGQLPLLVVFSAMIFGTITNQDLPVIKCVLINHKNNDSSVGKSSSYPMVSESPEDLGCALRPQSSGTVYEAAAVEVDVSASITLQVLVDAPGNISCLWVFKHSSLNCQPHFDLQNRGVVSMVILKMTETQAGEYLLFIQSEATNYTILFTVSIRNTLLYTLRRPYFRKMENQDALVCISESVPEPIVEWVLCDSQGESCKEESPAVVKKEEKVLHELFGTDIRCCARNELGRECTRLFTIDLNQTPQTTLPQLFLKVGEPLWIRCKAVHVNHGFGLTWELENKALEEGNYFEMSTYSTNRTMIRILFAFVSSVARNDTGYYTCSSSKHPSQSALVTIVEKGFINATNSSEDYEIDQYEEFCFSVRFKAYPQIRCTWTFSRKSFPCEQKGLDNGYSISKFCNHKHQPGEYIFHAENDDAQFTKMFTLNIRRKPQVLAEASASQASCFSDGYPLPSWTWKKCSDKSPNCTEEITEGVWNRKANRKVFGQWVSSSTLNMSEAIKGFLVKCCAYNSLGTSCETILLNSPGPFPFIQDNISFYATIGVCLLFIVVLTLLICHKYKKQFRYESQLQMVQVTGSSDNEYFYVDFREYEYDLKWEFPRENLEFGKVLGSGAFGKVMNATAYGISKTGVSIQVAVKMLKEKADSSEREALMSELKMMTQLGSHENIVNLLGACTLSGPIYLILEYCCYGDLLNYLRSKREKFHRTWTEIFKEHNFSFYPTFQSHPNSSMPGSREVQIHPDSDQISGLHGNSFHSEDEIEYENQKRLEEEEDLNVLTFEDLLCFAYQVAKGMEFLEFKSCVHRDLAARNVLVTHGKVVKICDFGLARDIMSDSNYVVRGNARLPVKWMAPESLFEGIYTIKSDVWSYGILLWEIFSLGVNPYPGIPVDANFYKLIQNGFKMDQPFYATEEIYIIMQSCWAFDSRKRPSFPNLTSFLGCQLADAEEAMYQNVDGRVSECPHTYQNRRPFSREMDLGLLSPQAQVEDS
Briefly: DiscoverX KINOMEscan competition binding, FLT3 ITD, F691L. Particulars: no ATP.
Text: as §1

The source of these data is US20250368648A1, “MULTI-CYCLIC IRAK AND FLT3 INHIBITING COMPOUNDS AND USES THEREOF” (CHILDREN'S HOSPITAL MEDICAL CENTER, priority 2022, published 2025).

The Kd is a measure of binding affinity in units of concentration. High values mean a looser complex, low ones a tighter complex.

Bounds are passed on as bounds.

`COc1cc2ncc(-c3nc(N[C@H]4CNCC[C@@H]4F)c(F)cc3F)n2nc1C1CCC1` [Compound 15a, 6-(6-cyclobutyl-7-methoxyimidazo[1,2-b]pyridazin-3-yl)-3,5-difluoro-N-((3S,4S)-4-fluoropiperidin-3-yl)pyridin-2-amine]: the Kd was 0.81 nM on FLT3 R834Q and less than 0.17 nM on FLT3 ITD, F691L.
